Assay results as given in paper PMC9317316, “Synthesis and Evaluation of Some New 4H-Pyran Derivatives as Antioxidant, Antibacterial and Anti-HCT-116 Cells of CRC, with Molecular Docking, Antiproliferative, Apoptotic and ADME Investigations” (Pharmaceuticals, 2022).
Values joined by “and” are separate entries in the source; they are usually repeats but may differ in a detail not shown here. Equal values may be shown once. Read-outs that look alike come from different tables or passages of the source.

Key:
B. subtilis (ATCC 6633) [1] = experiment: Antibacterial agar diffusion method (inhibition zone); format: cell-based
Procedure, shortened: (§1)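 Agar diffusion: compounds applied to top agar seeded with the strain, inhibition zone measured; ampicillin (10 µg/well) as reference. Viability: 2 ×10^7 CFU/mL in BHI shaken with compound 60 min at 37 °C, serially diluted, plated, colonies counted after 24 h at 37 °C; IC50 from residual CFU, mean of three.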

S. enteric (ATCC 43972) [2] = experiment: as above; format: cell-based
Procedure, shortened: as §1

[3] = tested on: P. aeruginosa (ATCC 27853); experiment: as above; format: cell-based
Procedure, shortened: as §1

[4] = tested on: K. pneumonia (ATCC 700603); experiment: as above; format: cell-based
Procedure, shortened: as §1

B. cereus (ATCC 14579) [5] = experiment: as above; format: cell-based
Procedure, shortened: as §1

E. faecalis (ATCC 29122) [6] = experiment: as above; format: cell-based
Procedure, shortened: as §1

[7] = tested on: S. epidermidis (ATCC 14990); experiment: as above; format: cell-based
Procedure, shortened: as §1

S. aureus (ATCC 25923) [8] = experiment: as above; format: cell-based
Procedure, shortened: as §1

E. coli (ATCC 25966) [9] = experiment: as above; format: cell-based; details: E. coil (ATCC 25966)
Procedure, shortened: as §1

B. subtilis (ATCC 6633) [10] = experiment: Antibacterial viability (CFU) assay, IC50; format: cell-based; details: Bacillus subtilis, ATCC6633, B. subtilis (ATCC 6633)
Procedure, shortened: as §1

S. enteric (ATCC 43972) [11] = experiment: Antibacterial viability (CFU) assay, IC50; format: cell-based; details: read-out: IC50
Procedure, shortened: as §1

[12] = tested on: P. aeruginosa (ATCC 27853); experiment: Antibacterial viability (CFU) assay, IC50; format: cell-based; details: Pseudomonas aeruginosa, ATCC27853
Procedure, shortened: as §1

[13] = tested on: K. pneumonia (ATCC 700603); experiment: Antibacterial viability (CFU) assay, IC50; format: cell-based; details: Klebsiella pneumoniae, ATCC700603
Procedure, shortened: as §1

B. cereus (ATCC 14579) [14] = experiment: Antibacterial viability (CFU) assay, IC50; format: cell-based; details: Bacillus cereus, ATCC14579
Procedure, shortened: as §1

E. faecalis (ATCC 29122) [15] = experiment: Antibacterial viability (CFU) assay, IC50; format: cell-based; details: Enterococcus faecalis, ATCC29122
Procedure, shortened: as §1

[16] = tested on: S. epidermidis (ATCC 14990); experiment: Antibacterial viability (CFU) assay, IC50; format: cell-based; details: Staphylococcus epidermidis, ATCC14990
Procedure, shortened: as §1

S. aureus (ATCC 25923) [17] = experiment: Antibacterial viability (CFU) assay, IC50; format: cell-based; details: Staphylococcus aureus, ATCC25923
Procedure, shortened: as §1

E. coli (ATCC 25966) [18] = experiment: Antibacterial viability (CFU) assay, IC50; format: cell-based; details: Escherichia coli, ATCC25966; E. coil (ATCC 25966)
Procedure, shortened: as §1

HCT-116 cells = experiment: Cell viability (cytotoxicity, LDH release) assay; format: cell-based; details: Homo sapiens, 24 h; for viability at 100 µg/mL: read-out: percent of viable cells
Procedure, shortened: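 Human colorectal HCT-116 cells exposed to compounds at 10, 25, 50 and 100 µg/mL in DMEM with 10% FBS for 24 h at 37 °C. LDH released into the supernatant measured at 600 nm; viability given as % of untreated control OD (mean ± SD, n = 3), 0.1% Triton X-100 as positive control.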

[19] = DPPH radical scavenging assay; details: for IC50: 0.03 to 1 mg/mL, 1 h, mean ± SD, triplicate, read-out: IC50 (mM) for DPPH Scavenging Potency
Procedure, shortened: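 Ethanolic DPPH mixed with samples at 0.03 to 1 mg/mL, kept 1 h at room temperature in darkness, then absorbance read at 519 nm against compound-free control. Scavenging percentage computed as (1 − Acompound/Acontrol) × 100; IC50 interpolated from scavenging-versus-concentration plot.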

[20] = Reducing power assay (FRAC, Fe3+ to Fe2+); details: 0-1 mg/mL, absorbance 700 nm
Procedure, shortened: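 Oyaizu method: compound (0–1 mg/mL) incubated with 0.2 M phosphate buffer pH 6.6 and 1% K3Fe(CN)6 at 50 °C for 20 min, then TCA, centrifugation, and 0.1% FeCl3 added to supernatant. Absorbance read at 700 nm; EC50 expressed in mM, BHT as reference.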

CDK2/CyclinA2 enzyme = target: T1, CDK2/CyclinA2 enzyme (Homo sapiens, UniProt P24941); experiment: In vitro CDK2 inhibitory assay (Kinase-Glo); format: biochemical
T1 construct: purchased BPS Biosciences, San Diego, CA, USA 79599
Experimental: To further substantiate the promising results of the docking analyses of pyrans 4d and 4K in the ATP active site of CDK2, their in vitro potencies to inhibit the enzyme activity were evaluated over a concentration range of 0.01−10 µM.
CDK-2 inhibition activity of the studied compounds 4d and 4k was evaluated using a commercial CDK2 […] (cat. no.: 79599; BPS Biosciences, San Diego, CA, USA) following the manufacturer’s instructions. Briefly, different concentrations of each compound or the positive control BMS-265246 (0.01, 0. 1, 1 or 10 µM) were incubated with 20 µL of diluted CDK2/CyclinA2 enzyme at 30 °C for 45 min. Following the addition of 50 µL Kinase-Glo® Reagent to each well, the plate was incubated at room temperature for 15 min. Then, the luminescence signal was measured using the microplate reader. The CDK2 inhibitory activity was expressed as inhibition percentage, which was determined by comparison with a control experiment for comparative purposes. IC50 values were deduced from the curves. All measurements were performed in triplicate.

[21] = tested on: CDK2 protein in HCT-116 cells; experiment: Quantitative determination of CDK2 concentration in HCT-116 cell lysates (Human CDK2 ELISA Kit); format: cell-based; details: negative control 7.466 ng/mL
Experimental: First, the commercial Human CDK2 ELISA Kit was used to estimate concentrations of the protein in the lysate of HCT-116 cells treated with 4d and 4k. The results were compared with the positive (cells treated with the reference CDK inhibitor, BMS-265246) and negative control experiments.
The in vitro quantitative measurement of concentration of CDK2 in lysates of HCT-116 cells was carried out using a commercial Human CDK2 ELISA Kit (cat. no.: LS-F22176; LifeSpan Biosciences Inc., Seattle, WA, USA) in the presence or absence of the studied compounds (4d and 4k), following the manufacturer’s instructions. Briefly, standards, blanks or samples were first incubated in the corresponding wells for 90 min at 37 °C. Then, biotinylated detection antibody was added to each well and the plate was incubated for 1 h at 37 °C followed by the addition of an Avidin–Horseradish Peroxidase (HRP) conjugate which binds to the biotin. After incubation of the mixture for 30 min at 37 °C, unbound Avidin–HRP conjugate was washed away and a TMB substrate was then added which reacts with the HRP enzyme, resulting in color development. After that, the reaction was stopped using a sulfuric acid stop solution to terminate the color-development reaction and the optical density of each well was measured using a microplate reader at 450 nm. BMS-265246 was used as the standard drug for inhibition of CDK2. All measurements were performed in triplicate.

[22] = read-out: Mean IC50 (µM) of cytotoxicity
[23] = read-out: Mean IC50 (µg/mL) of cytotoxicity

With `Cc1[nH]nc2c1C(c1cccc(O)c1Cl)C(C#N)=C(N)O2` (centres unmarked) [5a, 6-Amino-4-(2-chloro-3-hydroxy-phenyl)-3-methyl-2,4-dihydro-pyrano[2,3-c]pyrazole-5-carbonitrile] the “IZ (mm)” value (B. subtilis (ATCC 6633) [1]) was 12.50 ± 0.71 mm, the “IZ (mm)” value (S. enteric (ATCC 43972) [2]) was 4.5 ± 0.7 mm and the “IZ (mm)” value [3] was 5.5 ± 0.7 mm. The “IZ (mm)” value [4] was 6.0 ± 1.4 mm, the “IZ (mm)” value (B. cereus (ATCC 14579) [5]) was 12.50 ± 0.71 mm and the “IZ (mm)” value (E. faecalis (ATCC 29122) [6]) was 10.50 ± 0.71 mm. The “IZ (mm)” value [7] was 13.50 ± 0.71 mm, the “IZ (mm)” value (S. aureus (ATCC 25923) [8]) was 14.00 ± 1.40 mm and the “IZ (mm)” value (E. coli (ATCC 25966) [9]) was 2.8 ± 0.21 mm. The IC50 (B. subtilis (ATCC 6633) [10]) was 62.43 ± 0.46 µM, the IC50 (S. enteric (ATCC 43972) [11]) was 105 ± 1.32 µM and the IC50 [12] was 85.9 ± 3.3 µM. It also gave an IC50 [13] of 96.5 ± 4.96 µM, an IC50 (B. cereus (ATCC 14579) [14]) of 62.43 ± 0.46 µM and an IC50 (E. faecalis (ATCC 29122) [15]) of 51.9 ± 1.39 µM. It also gave an IC50 [16] of 54.8 ± 1.88 µM, an IC50 (S. aureus (ATCC 25923) [17]) of 43.9 ± 1.39 µM and an IC50 (E. coli (ATCC 25966) [18]) of 110 ± 5.95 µM. For the same compound, the viability at 100 µg/mL (HCT-116 cells) was 11 to 32.5%, the IC50 (HCT-116 cells; [22]) was 189 ± 10.8 µM and the IC50 (HCT-116 cells; [23]) was 60 ± 3.28 µg/mL. For the same compound, the melting point was 240 to 242 °C, the IC50 [19] was 0.826 ± 0.092 mM and the “DPPH Radical Scavenging Effenciency (%) at 1 mg/mL” value [19] was 45.50 ± 2.12%. For the same compound, the EC50 [20] was 363 ± 47 µM.

With `COc1cc(OC)c(C2C(C#N)=C(N)Oc3n[nH]c(C)c32)c(OC)c1` (centres unmarked) [5b, 6-Amino-3-methyl-4-(2,4,6-trimethoxy-phenyl)-2,4-dihydro-pyrano[2,3-c]pyrazole-5-carbonitrile] the “IZ (mm)” value (B. subtilis (ATCC 6633) [1]) was 8.50 ± 0.71 mm, the “IZ (mm)” value (S. enteric (ATCC 43972) [2]) was 7.5 ± 0.7 mm and the “IZ (mm)” value [3] was 6.5 ± 0.7 mm. For the same compound, the “IZ (mm)” value [4] was 4.5 ± 0.7 mm, the “IZ (mm)” value (B. cereus (ATCC 14579) [5]) was 8.00 ± 1.41 mm and the “IZ (mm)” value (E. faecalis (ATCC 29122) [6]) was 9.75 ± 1.06 mm. The “IZ (mm)” value [7] was 6.60 mm and 6.60 ± 0.57 mm, the “IZ (mm)” value (S. aureus (ATCC 25923) [8]) was 5.50 ± 0.71 mm and the “IZ (mm)” value (E. coli (ATCC 25966) [9]) was 3.5 ± 0.71 mm. For the same compound, the IC50 (B. subtilis (ATCC 6633) [10]) was 41.8 ± 1.23 µM, the IC50 (S. enteric (ATCC 43972) [11]) was 106 ± 2.92 µM and the IC50 [12] was 92.3 ± 1.46 µM. For the same compound, the IC50 [13] was 110 ± 1.75 µM, the IC50 (B. cereus (ATCC 14579) [14]) was 42.6 ± 1.66 µM and the IC50 (E. faecalis (ATCC 29122) [15]) was 45.1 ± 1.87 µM. It also gave an IC50 [16] of 50.1 ± 0.61 µM, an IC50 (S. aureus (ATCC 25923) [17]) of 39.1 ± 1.66 µM and an IC50 (E. coli (ATCC 25966) [18]) of 117 ± 4.09 µM. For the same compound, the viability at 100 µg/mL (HCT-116 cells) was 11 to 32.5%, the IC50 (HCT-116 cells; [22]) was 97.9 ± 7.06 µM and the IC50 (HCT-116 cells; [23]) was 33.5 ± 2.42 µg/mL. For the same compound, the melting point was 182 to 184 °C, the IC50 [19] was 1.78 ± 0.082 mM and the “DPPH Radical Scavenging Effenciency (%) at 1 mg/mL” value [19] was 37.50 ± 2.12%. For the same compound, the EC50 [20] was 467 ± 41 µM.

With `CCCCOc1c(C(=O)c2c(F)cc(C)cc2F)c[nH]c2nncc1-2` [BMS-265246, reference compound] the “decrease of CDK2 activity” value (CDK2/CyclinA2 enzyme; at 10 µM) was 92.3%, the IC50 (CDK2/CyclinA2 enzyme; deduced from curves over 0.01-10 µM, read-out: IC50 against CDK2) was 0.036 µM and the “concentration of CDK2 in lysate of treated HCT-116 cells” value [21] was 2.229 ng/mL.
